US9752115B2, “Culture conditions for expansion of nephron progenitor cells” (Maine Medical Center Research Institute, priority 2014, dated 2017)

Tests used:
[1] = test system: E17.5 CITED1+ progenitors; test: Subtraction of individual factors from NPEM, mouse progenitors; type: cell-based; conditions: for competence for tubulogenesis after subtraction of the factor: 7 days in aggregate culture after monolayer; for progenitor growth and state in the absence of the factor: factor subtracted from NPEM, 3 days monolayer
Protocol: Flow cytometry. CITED1+ progenitors were purified from GFP+ kidneys isolated from Cited1creERT2-EGFP×ICR mice and cultured as described in the text. GFP fluorescence intensity and cell counts were collected on a FACSCalibur (BD) and data were analyzed using FlowJo software.
Using flow cytometry on E17.5 CITED1+ progenitors derived from Cited1creERT2-EGFP mice, the requirement for each of the culture additives to maintain cells in the undifferentiated state was evaluated by subtracting them from the medium (FIGS. 10A and 10B).
In the absence of LDN, nuclear localization of pSMAD1/5 increased dramatically, as did transcription of the SMAD response gene Cv2 (FIGS. 10C and 10D). […] In addition to losing CITED1 expression, progenitors cultured in the absence of LDN lost expression of characteristic marker genes including […], PAX2, WT1 and […], which may have helped to explain their lack of competence (FIG. 10F and FIG. 14). CITED1+ progenitors isolated from E13.5 kidneys also required LDN to expand while maintaining their competence to differentiate (FIG. 15).

[2] = test system: hESC-derived nephron progenitors; test: Subtraction of individual components from NPEM, hESC-derived progenitors; type: cell-based, human; conditions: passage 3 progenitors, 3 days monolayer
Protocol: FIGS. 19A and 19B show nephron progenitor marker expression in human ES cell derived cultures grown in the absence of individual factors. In FIG. 19A, passage 3 progenitors were grown in NPEM in the absence of individual factors for 3 days in monolayer culture and immunostained for CITED1, SIX2, PAX2 and WT1. Antibody staining is shown in red and nuclear counterstaining with DAPI is shown in blue. In FIG. 19B, passage 3 progenitors were grown in NPEM in the absence of the indicated factors for 3 days in monolayer culture and immunostained for PAX2.
To understand if cellular growth in NPEM could be directly extrapolated to human cells, the above analysis was repeated with nephron progenitor cells derived from hESCs using the Takasato protocol (Takasato et al., 2014). CITED1+/SIX2+/PAX2+/WT1+ cells generated using this procedure lost expression of nephron progenitor markers following a single passage (FIG. 12A and FIG. 18A). […] When LDN was eliminated from the medium during the passage 2 culture, cells lost expression of PAX2 (FIG. 12C).

[3] = molecular target: T1, ALK7 (Homo sapiens, UniProt Q8NER5); conditions: ALK7, not inhibited; cited from earlier work
T1 sequence (Q8NER5 21-493): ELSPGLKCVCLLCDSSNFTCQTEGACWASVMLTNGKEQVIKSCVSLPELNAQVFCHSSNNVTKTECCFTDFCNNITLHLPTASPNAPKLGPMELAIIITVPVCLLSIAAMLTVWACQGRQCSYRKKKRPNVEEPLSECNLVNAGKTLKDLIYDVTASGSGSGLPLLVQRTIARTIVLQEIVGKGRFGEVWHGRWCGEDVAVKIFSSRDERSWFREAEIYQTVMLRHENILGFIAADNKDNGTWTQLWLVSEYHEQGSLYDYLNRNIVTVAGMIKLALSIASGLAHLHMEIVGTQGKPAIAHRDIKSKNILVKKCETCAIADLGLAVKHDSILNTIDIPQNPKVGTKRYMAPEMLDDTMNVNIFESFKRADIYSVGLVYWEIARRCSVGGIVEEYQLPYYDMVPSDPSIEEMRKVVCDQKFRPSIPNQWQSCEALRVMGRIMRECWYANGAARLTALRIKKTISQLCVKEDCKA

[4] = test system: CITED1+ progenitors; test: Aggregate culture tubulogenesis of purified CITED1+ progenitors; type: cell-based, mouse
Protocol: Cell culture. CITED1+ progenitors were purified from NZCs derived from E17.5 kidneys as previously described (Brown et al., 2011b; Brown et al., 2013). CITED1+ progenitors were cultured in monolayer on hESC qualified MatrigelTM coated plates (Corning). For human or mouse passage, cells were dissociated by incubation with TrypLE (Life Technologies) for 2 minutes at 37 C, washed and spun 2× at 300 g in autoMACs running buffer (Miltenyi) prior to resuspension in NPEM as described in Table 1. NPEM is changed every 2 days. Cells were differentiated in aggregate culture with CHIR (3 μM) in medium as previously described (Brown et al., 2013). To understand if these observations could be extrapolated to CITED1+ cells in culture, a series of experiments was performed upon nephron progenitor cells isolated from embryonic mouse kidneys. Using a previously developed isolation protocol, CITED1+ progenitors were harvested from embryonic mouse kidneys between the ages of E16.5 to P1 at near 100% purity, allowing interrogation of the CITED1+ population at multiple time points (FIGS. 7A and 7B) (Brown et al., 2013). However, CITED1 progenitor purity dropped to 75% by P2, likely due to the loss of CITED1+ progenitors that occurred during cessation (FIG. 7B and FIG. 6B).

[5] = test system: cap mesenchyme; test: Cited1/Six2 EGFP reporter expression in cap mesenchyme of treated pups; type: in vivo, mouse; conditions: EGFP reporter mice, P2 and P3; untreated animals lost expression
Excerpt: (§1) Fluorescent imaging of GFP expression in cap mesenchymes “C” shown. […] Cap mesenchymes are outlined with dotted red lines. […] Percent remaining after LDN treatment quantified in graph. NZCs were isolated from 4 kidney pairs per treatment group and pooled. […] Representative image from 4 kidney pairs per group shown. […] Data represent the mean±SD of qPCR technical replicates from 5 (DMSO) and 6 (LDN) pooled kidney pairs.
(§2) Mouse strains and treatments. Animal care was in accordance with the National Research Council Guide for the Care and Use of Laboratory Animals and protocols were approved by the Institutional Animal Care and Use Committee of Maine Medical Center. CITED1 progenitors were derived from kidneys of Cited1creERT2-EGFP×ICR (Institute for Cancer Research mice) heterozygous mice. Cited1creERT2-EGFP and Six2cre-EGFP mouse strains are maintained on an FVB/NJ background (Boyle et al., 2008a; Kobayashi et al., 2008).
(§3) LDN was selected over other similar analogs because it is highly specific for SMAD1/5 and has been successfully used in vivo (Yu et al., 2008). […] To measure the differentiation status of nephron progenitor cells, Cited1creERT2-EGFP and Six2cre-EGFP mouse strains were used, which dynamically expressed fluorescent protein under the control of Cited1 and Six2 (Boyle et al., 2008a; Kobayashi et al., 2008). […]

[6] = test system: SMAD1/5 phosphorylation; test: pSMAD1/5 immunoblot of nephrogenic zone cells from LDN-treated newborn pups; type: in vivo, mouse; conditions: immunoblot of isolated NZCs; 3 mg/kg intraperitoneal twice daily P0 until P2
Excerpt: as §1, §2, §3

[7] = test system: CITED1+ progenitors; conditions: serum free medium; BIO 2 μM, CHIR99021 3 μM; cited from earlier work

SMILES | competence for tubulogenesis after subtraction of the factor [1] | progenitor growth and state in the absence of the factor [1] | expression of CITED1, PAX2, SIX2 and WT1 after subtraction of the component [2] | IC50 [3] [nM] | Cited1-driven GFP expression ([4]; LDN 75 nM added to CHIR 3 μM) | effect on CHIR-induced tubulogenesis ([4]; LDN 75 nM added to CHIR 3 μM) | expression of Cited1 and Six2 in cap mesenchyme [5] | reduction in SMAD1/5 phosphorylation compared to vehicle-treated controls [6] | tubulogenesis in aggregate culture with WNT/β-catenin agonist [7] | tubulogenesis of P0 Cited1creERT2-EGFP progenitors ([4]; CHIR 3 μM, by day 4, GFP expression lost)
C[C@@H](N)[C@H]1CC[C@H](C(=O)Nc2ccncc2)CC1 [Y-27632] | still competent to undergo tubulogenesis | significant decrease in cell attachment | critical dependence | – | – | – | – | – | – | –
c1ccc2c(-c3cnn4cc(-c5ccc(N6CCNCC6)cc5)cnc34)ccnc2c1 [LDN-193189] | unable to undergo differentiation | expanded but were largely CITED1 negative | critical dependence | > 500 | maintained GFP expression | blocked tubulogenesis | expression was maintained | greater than 95% | – | –
O=C1Nc2cc(Br)ccc2/C1=C1/Nc2ccccc2/C1=N\O [BIO] | – | – | – | – | – | – | – | – | robust tubulogenesis | –
Cc1c[nH]c(-c2cnc(NCCNc3ccc(C#N)cn3)nc2-c2ccc(Cl)cc2Cl)n1 [CHIR99021] | still competent to undergo tubulogenesis | failed to expand but remained CITED1+ | critical dependence | – | – | – | – | – | robust tubulogenesis | underwent tubulogenesis
